From ChEMBL document CHEMBL3817790 (Medchemcomm, 2016)

Key:
Trypanosoma cruzi [1] = experiment: Antitrypanosomal activity against trypomastigote stage of Trypanosoma cruzi Y assessed as reduction in parasitic viability after 24 hrs by Pizzi-Brener method; assay type: functional, organism-based
[2] = Cytotoxicity against African green monkey Vero cells after 72 hrs by MTT assay; assay type: cell-based; settings: chlorocebus sabaeus
Trypanosoma cruzi [3] = experiment: Antitrypanosomal activity against epimastigote stage of Trypanosoma cruzi Y assessed as reduction in parasitic count after 96 hrs by Neubauer hemocytometry; assay type: functional, organism-based
Leishmania amazonensis = experiment: Antileishmanial activity against promastigote stage of Leishmania amazonensis MHOM/BR/75/Josefa assessed as reduction in parasitic count after 72 hrs by Neubauer hemocytometry; assay type: functional, organism-based
Leishmania donovani = experiment: Antileishmanial activity against promastigote stage of Leishmania donovani after 2 hrs by [3H]thymidine incorporation assay; assay type: functional, organism-based

COc1ccc(/C=C(\C)C(C)=O)cc1
EC50 (Trypanosoma cruzi [1]): > 100 µM
CC50 at 72 h [2]: 240 µM
IC50 (Trypanosoma cruzi [3]): > 100 µM
IC50 (Leishmania amazonensis): > 100 µM

CC/C(=C\c1ccc(Cl)cc1)C(=O)/C=C/c1ccc([N+](=O)[O-])cc1
EC50 (Trypanosoma cruzi [1]): 17.9 µM
CC50 at 72 h [2]: 36 µM
IC50 (Trypanosoma cruzi [3]): 2.5 µM
IC50 (Leishmania amazonensis): 0.5 µM

COc1ccc(/C=C(\C)C(=O)/C=C/c2ccccc2Cl)cc1
EC50 (Trypanosoma cruzi [1]): 21.8 µM
CC50 at 72 h [2]: 74.3 µM
IC50 (Trypanosoma cruzi [3]): 17.8 µM
IC50 (Leishmania amazonensis): 19.5 µM

CC/C(=C\c1ccc(Cl)cc1)C(=O)/C=C/c1ccccc1Br
EC50 (Trypanosoma cruzi [1]): 20 µM
CC50 at 72 h [2]: 24.4 µM
IC50 (Trypanosoma cruzi [3]): 1.8 µM
IC50 (Leishmania amazonensis): 1.3 µM

CC/C(=C\c1ccc(Cl)cc1)C(=O)/C=C/c1ccc(Cl)cc1
EC50 (Trypanosoma cruzi [1]): 25.6 µM
CC50 at 72 h [2]: 28.3 µM
IC50 (Trypanosoma cruzi [3]): 10.2 µM
IC50 (Leishmania amazonensis): 2.4 µM

COc1ccc(/C=C(\C)C(=O)/C=C/c2cc(OC)c(OC)c(OC)c2)cc1
EC50 (Trypanosoma cruzi [1]): 69.2 µM
CC50 at 72 h [2]: 21.4 µM
IC50 (Trypanosoma cruzi [3]): 6.1 µM
IC50 (Leishmania amazonensis): 3.7 µM

COc1ccc(/C=C(\C)C(=O)/C=C/c2ccccc2Br)cc1
EC50 (Trypanosoma cruzi [1]): 25 µM
CC50 at 72 h [2]: 71 µM
IC50 (Trypanosoma cruzi [3]): 21.7 µM
IC50 (Leishmania amazonensis): 21.7 µM

COc1ccc(/C=C(\C)C(=O)/C=C/c2ccc(Br)cc2)cc1
EC50 (Trypanosoma cruzi [1]): 21.1 µM
CC50 at 72 h [2]: 31.2 µM
IC50 (Trypanosoma cruzi [3]): 20 µM
IC50 (Leishmania amazonensis): 17.3 µM

COc1ccc(/C=C(\C)C(=O)/C=C/c2ccccc2F)cc1
EC50 (Trypanosoma cruzi [1]): 67.6 µM
CC50 at 72 h [2]: 81.2 µM
IC50 (Trypanosoma cruzi [3]): 15.2 µM
IC50 (Leishmania amazonensis): 32.2 µM

COc1ccc(/C=C(\C)C(=O)/C=C/c2ccc(/C=C/C(=O)/C(C)=C/c3ccc(OC)cc3)cc2)cc1
EC50 (Trypanosoma cruzi [1]): > 100 µM
CC50 at 72 h [2]: 460 µM
IC50 (Trypanosoma cruzi [3]): > 100 µM
IC50 (Leishmania amazonensis): 76.3 µM

COc1ccc(/C=C(\C)C(=O)/C=C/c2c(Cl)cccc2Cl)cc1
EC50 (Trypanosoma cruzi [1]): 27.9 µM
CC50 at 72 h [2]: 65.7 µM
IC50 (Trypanosoma cruzi [3]): 19.6 µM
IC50 (Leishmania amazonensis): 8.2 µM

COc1ccc(/C=C(\C)C(=O)/C=C/c2cccc(Br)c2)cc1
EC50 (Trypanosoma cruzi [1]): 20.3 µM
CC50 at 72 h [2]: 152 µM
IC50 (Trypanosoma cruzi [3]): 17.2 µM
IC50 (Leishmania amazonensis): 17.2 µM

COc1ccc(/C=C(\C)C(=O)/C=C/c2ccc(Cl)cc2)cc1
EC50 (Trypanosoma cruzi [1]): 23 µM
CC50 at 72 h [2]: 87 µM
IC50 (Trypanosoma cruzi [3]): 18.9 µM
IC50 (Leishmania amazonensis): 13.8 µM

COc1ccc(/C=C(\C)C(=O)/C=C/c2ccc(F)cc2)cc1
EC50 (Trypanosoma cruzi [1]): 19.7 µM
CC50 at 72 h [2]: 68.1 µM
IC50 (Trypanosoma cruzi [3]): 15.1 µM
IC50 (Leishmania amazonensis): 19.3 µM

CC/C(=C\c1ccc(Cl)cc1)C(=O)/C=C/c1ccc(C=O)cc1
EC50 (Trypanosoma cruzi [1]): 74.2 µM
CC50 at 72 h [2]: 46.9 µM
IC50 (Trypanosoma cruzi [3]): 65.2 µM
IC50 (Leishmania amazonensis): 17.4 µM

COc1ccc(/C=C(\C)C(=O)/C=C/c2ccc(OC)c(OC)c2)cc1
EC50 (Trypanosoma cruzi [1]): 66.7 µM
CC50 at 72 h [2]: 74.2 µM
IC50 (Trypanosoma cruzi [3]): 9.7 µM
IC50 (Leishmania amazonensis): 9.8 µM

COc1cc(/C=C/C(=O)c2ccc(O)c(O)c2)c(OC)c(OC)c1O
IC50 (Leishmania donovani): 3.7 µM

COc1ccc(/C=C(\C)C(=O)/C=C/c2cccc(Cl)c2Cl)cc1
EC50 (Trypanosoma cruzi [1]): 14.8 µM
CC50 at 72 h [2]: 119 µM
IC50 (Trypanosoma cruzi [3]): 16.8 µM
IC50 (Leishmania amazonensis): 13.8 µM

CC/C(=C\c1ccc(Cl)cc1)C(=O)/C=C/c1ccc(Br)cc1
EC50 (Trypanosoma cruzi [1]): 19.5 µM
CC50 at 72 h [2]: 29.4 µM
IC50 (Trypanosoma cruzi [3]): 5.4 µM
IC50 (Leishmania amazonensis): 1.4 µM

CC/C(=C\c1ccc(Cl)cc1)C(=O)/C=C/c1cccc(OC)c1OC
EC50 (Trypanosoma cruzi [1]): 19.1 µM
CC50 at 72 h [2]: 21.8 µM
IC50 (Trypanosoma cruzi [3]): 5.5 µM
IC50 (Leishmania amazonensis): 2 µM

CC/C(=C\c1ccc(Cl)cc1)C(C)=O
EC50 (Trypanosoma cruzi [1]): > 100 µM
CC50 at 72 h [2]: 136 µM
IC50 (Trypanosoma cruzi [3]): > 100 µM
IC50 (Leishmania amazonensis): 58 µM

CC/C(=C\c1ccc(Cl)cc1)C(=O)/C=C/c1ccc2c(c1)OCO2
EC50 (Trypanosoma cruzi [1]): 7.6 µM
CC50 at 72 h [2]: 27.1 µM
IC50 (Trypanosoma cruzi [3]): 2.8 µM
IC50 (Leishmania amazonensis): 2.9 µM

O=C(Cn1ccnc1[N+](=O)[O-])NCc1ccccc1 [BENZNIDAZOLE]
EC50 (Trypanosoma cruzi [1]): 34.5 µM
IC50 (Trypanosoma cruzi [3]): 6.5 µM
